{"source": "ChEMBL document CHEMBL1149723", "about": "“Structures of four new triterpenoid oligoglycosides: DS-penaustrosides A, B, C, and D from the sea cucumber Pentacta australis” (J Nat Prod, 1992)", "key": {"[1]": {"test_system": "KB", "test": "Cytotoxicity against human KB cells", "assay_type": "functional, cell-based"}, "[2]": {"test_system": "L1210", "test": "Cytotoxicity against mouse L1210 cells", "assay_type": "functional, cell-based"}}, "data": [{"smiles": "CO[C@@H]1[C@@H](O)[C@H](O[C@@H]2[C@@H](O)[C@H](O[C@H]3[C@H](O)[C@@H](O[C@@H]4OC[C@@H](O)[C@H](O)[C@H]4O)[C@H](O[C@H]4[C@H](O[C@H]5CC[C@]6(C)C7=CC[C@]8(C)[C@@H]([C@@](C)(O)CCCC(C)C)CC[C@@]8(C)[C@@H]7CC[C@H]6C5(C)C)OC[C@@H](O)[C@@H]4O)O[C@@H]3C)O[C@H](CO)[C@H]2O)O[C@H](CO)[C@H]1O", "note": "[DS-PENAUSTROSIDE A]", "values": [{"measurement": "IC50", "setting": "[1]", "value": 0.62, "unit": "mg/L"}, {"measurement": "IC50", "setting": "[2]", "value": 0.12, "unit": "mg/L"}]}, {"smiles": "C=C(C)CCC[C@](C)(O)[C@H]1CC[C@@]2(C)[C@@H]3CC[C@H]4C(C)(C)[C@@H](O[C@@H]5OC[C@@H](O)[C@H](O)[C@H]5O[C@@H]5O[C@H](C)[C@@H](O[C@@H]6O[C@H](CO)[C@@H](O)[C@H](O[C@@H]7O[C@H](CO)[C@@H](O)[C@H](OC)[C@H]7O)[C@H]6O)[C@H](O)[C@H]5O[C@@H]5OC[C@@H](O)[C@H](O)[C@H]5O)CC[C@]4(C)C3=CC[C@]12C", "note": "[DS-PENAUSTROSIDE B]", "values": [{"measurement": "IC50", "setting": "[1]", "value": 4.6, "unit": "mg/L"}, {"measurement": "IC50", "setting": "[2]", "value": 2.1, "unit": "mg/L"}]}]}
